Results reported in US20150344822A1, “Decontaminant and Process for Decontamination of Chemicals from Infrastructural Materials” (priority 2014, published 2015).
Several values for one entry are separate records, joined by “and”; a condition that tells them apart may be missing. Identical values can stand only once. Like-named read-outs stand apart in the source and are kept apart here.

How the values were obtained:
[1] = hazardous ingredient of the product; cited from earlier work
[2] = cited from earlier work
rat = conditions: oral (rat); cited from earlier work
[3] = product as supplied; cited from earlier work
[4] = Task 2: efficacy of decontamination agents (extraction and subsequent rinses); conditions: for Aqueous concentration of mercury, Extraction: extractant hypochlorite (300 mg/L), mercury input 19530.00 mg/L, adhered 7 days, 20-25° C.
Excerpt: The pipe materials used for subtask 2 were DIE, DIW, PVC and copper. […] Types of interactions included scrubbing, flushing, recirculation, shaking and static equilibrium.
After equilibration, the contaminant was extracted using the various decontamination agents. […] Surfactant molecules have both hydrophilic and hydrophobic parts, and the most attractive place for them in water is at the surface where the forces of both attraction and repulsion to water can be satisfied. […] The aqueous solutions of these decontaminants were prepared using the available chemical decontaminants and diluting them to required concentration by adding DI water. Appropriate volume corrections were conducted for NaOCl considering available solution concentration of NaOCl received from the supplier.
(§1) The sample was introduced via a peristaltic pump by pneumatic nebulization into radio frequency plasma where energy transfer processes cause desolvation, atomization, and ionization. The ions were extracted from the plasma through a pumped vacuum interface and separated on the basis of their mass-to-charge ratio by a quadrupole mass spectrometer. The ions transmitted through the quadrupole were registered by a continuous dynode electron multiplier and the ion information was processed by a data handling system.

[5] = Task 1A: surface adherence of contaminants on pipe materials, 7 days at 20-25° C.; type: physicochemical; conditions: comparison of Tasks 1A, 1B, 1C
[6] = Task 1: removal of adhered chemicals by three de-ionized water rinses and extractant; conditions: for Aqueous concentration of mercury, Extraction: adherence at 4-6° C.; for Aqueous concentration, Extractant: after 24 hours; for Aqueous concentration, Extractant / Aqueous concentration of mercury, Extractant: 20-25° C.; for Aqueous concentration of mercury, Extractant: after 7 days, initial 22829.8 mg/L, extractant = chemical decontaminant of the present disclosure
Description: In Task 1, the pipes were rinsed immediately after the equilibrated solution was transferred into the analytical sample vials. Thereafter, de-ionized water at room temperature was used for rinsing the pipes. Three consecutive rinses were conducted using de-ionized water at room temperature. In case of aged black iron pipe, the aqueous solution was centrifuged before transferring to the sample vials to avoid entrainment of colloidal corroded iron particles in the solution. During the extraction step, the pipes were about half filled with the extraction solution and wrapped tightly. The 4″ diameter pipes were filled with 150 mL of extraction solution. The copper, PVC, and HDPE pipes were filled with 55 mL of extraction solution, while the epoxy and the aged metal pipes were filled with 85 mL of extraction solution. […] After shaking for 1 hour, the pipes were flipped in order to get contact with the entire inner surface of the pipe. The extraction solutions were transferred to the appropriate sample vial.
as §1
In this table, m0 and mi are the initial and final amounts of chemical in water.
Water rinse was done to remove the weakly-bound chemicals, while the strongly-bound chemicals, if any, were extracted with stronger solvents.

CCCCOCCO [Butyl cellosolve]
PEL [1]: 25 mg/L
TLV [1]: 25 mg/L

COP(=O)(OC)OC=C(Cl)Cl [Dichlorvos]
Hydrolysis ([2]; at pH 4): slow
Hydrolysis ([2]; at pH 9): rapid
Half-life ([2]; between pH 4 and pH 9): 20 to 80 h
LD50 (rat): LD50 oral (rat) 56 to 80 mg/kg

COP(=O)(OC)O/C(C)=C/C(=O)N(C)C [Dicrotophos]
time after which decomposed ([2]; at 75° C.): 31 days
time after which decomposed ([2]; at 90° C.): 7 days
storage stability ([2]; stored in glass or polythene containers up to 40° C.): stable
LD50 (rat): Oral LD50 for rats is 16- 21 mg/kg.

OCl [Sodium Hypochlorite, Sodium hypochlorite]
pH [3]: ~13
Aqueous concentration of mercury, Extraction ([4]; COP (copper) pipe, listed as Hypochlorite): 11.01 mg/L and 8.48 mg/L
Aqueous concentration of mercury, Extraction ([4]; COP (copper) pipe, listed as hypochlorite): 8.5 mg/L and 11 mg/L
Aqueous concentration of mercury, Extraction ([4]; DIE pipe): 133.91 mg/L and 136.16 mg/L
Aqueous concentration of mercury, Extraction ([4]; DIW pipe, listed as Hypochlorite): 251.05 mg/L and 315.47 mg/L
Aqueous concentration of mercury, Extraction ([4]; DIW pipe, listed as hypochlorite): 251 mg/L and 315 mg/L
Aqueous concentration of mercury, Extraction ([4]; PVC pipe): 290.19 mg/L and 172.41 mg/L
effectiveness in releasing / removing adhered mercury ([4]; mercury adhered on DIW and copper pipes): not effective
removal / recovery of contaminants compared with the other decontaminants tested ([4]; mercury and organophosphates, solid surfaces): significantly less

O=C(O)CF [fluoroacetate]
Adhesion coefficients under 7 days and room temperature condition versus 24 hours or low temperature conditions [5]: generally higher

Mercuric chloride [Mercury]
Aqueous concentration of mercury, Extraction ([6]; Copper pipe, Mercury #1, initial 7737.5 mg/L): 515.7 mg/L and 272.8 mg/L
Aqueous concentration, Extractant ([6]; Copper pipe, Mercury #1, initial 8171.5 mg/L): 702.4 mg/L and 559.3 mg/L
Aqueous concentration, Extractant ([6]; Copper pipe, Mercury #2, initial 23950.0 mg/L): 1820.0 mg/L and 2140.0 mg/L
Aqueous concentration of mercury, Extraction ([6]; Copper pipe, Mercury #2, initial 28800.0 mg/L): 2930.0 mg/L and 2800.0 mg/L
Aqueous concentration of mercury, Extractant ([6]; Copper pipe): 7368.1 mg/L and 6413.5 mg/L
Aqueous concentration of mercury, Extractant ([6]; DIE pipe): 187.6 mg/L and 179.1 mg/L
Aqueous concentration of mercury, Extractant ([6]; DIO pipe): 9532.2 mg/L and 7156.1 mg/L
Aqueous concentration, Extractant ([6]; DIW pipe, Mercury #1, initial 8171.5 mg/L): 684.6 mg/L and 914.1 mg/L
Aqueous concentration of mercury, Extraction ([6]; DIW pipe, Mercury #2, initial 28800.0 mg/L): 1520.0 mg/L and 2290.0 mg/L
Aqueous concentration of mercury, Extractant ([6]; HDPE pipe): 0.3 mg/L and 0.5 mg/L
Aqueous concentration of mercury, Extraction ([6]; PVC pipe, Mercury #1, initial 7737.5 mg/L): 1.6 mg/L and 2.6 mg/L
